Here are results for 3 molecules from US4647685A, “2-alkoxy-1-((2-trialkylaminoethoxy)phosphinyloxy)-alkenes and alkynes, hydroxy inner salts” (Eli Lilly and Company, priority 1985, dated 1987).

Where a name gives a salt, the structure may show the parent alone.

One series deals with CCRF-CEM cell line. The experiment in a line: Inhibition of growth of human leukemic cells (CCRF-CEM Cytotoxicity Screen). The settings on record: in vitro, read-out: IC50 (concentration giving 50% growth inhibition). Type of series: cell-based.
The test system of series [1] is X-5563 (multiple myeloma). The experiment in a line: Activity against X-5563 (multiple myeloma) tumor maintained in C3H mice. Type of series: in vivo. The settings on record: I.P. daily for 10 days, tumors measured days 10 to 12. The method, then:
(§1) The following protocol was employed. The tumor was removed from passage animals and minced into 1 to 3 mm square fragments using sterile techniques. Tumor pieces were checked for sterility using both Antibiotic Medium 1 and Brain Heart Infusion (Difco; Detroit, MI). Recipient mice were shaved and tumor pieces were implanted subcutaneously in the axillary region by trocar. Drug therapy on the appropriate schedule was initiated on the day after tumor implant. The compound was dissolved in saline for all experiments. All animals were weighed at the beginning and end of drug treatment. Food and water were provided ad libitum. Each test group contains 5 animals. On days 10 to 12, two dimensional measurements (width and length) of all tumors were taken using vernier calipers. Tumor weights were calculated from these measurements using the following formula:
Tumor Weight (mg)=Tumor Length (mm) X Tumor Width (mm)^2 /2
(§2) For all data, the tumor weight was rounded to the nearest tenth of a gram for analysis. No group is included in the analysis for therapeutic activity in which deaths attributable to drug toxicity exceeded 30 percent of the treated group.
(§3) In Table 2 which follows, column 1 gives the name of the compound; column 2, the dose level; column 3, the percent inhibition of the tumor; and column 4, the toxic deaths. Drug and control doasges were administered I.P. daily for 10 days.

Series [2] can be described thus: Toxic deaths in the X-5563 (multiple myeloma) tumor test. Type of series: in vivo, C3H mice. The settings on record: I.P. daily for 10 days. The method, then:
as §1, with “formula: […]” for “formula:”
as §2, §3

Take `CCCCC/C=C\C/C=C\CCCCCCCC(COP(=O)([O-])OCC[N+](C)(C)C)OCC` (racemic) [(Z,Z)-(±)-2-Ethoxy-1-[(2-trimethylaminoethoxy)phosphinyloxy]-10,13 nonadecadiene, hydroxy inner salt]: the IC50 in the series on CCRF-CEM cell line stood at 6 µg/mL. Also, the “Percent Inhibition of Tumor” value in series [1] (70 mg/kg) was determined as 31%. In series [2] (70 mg/kg), the “Toxic Deaths” value is 2/10.
On to `CCCCCCCC/C=C\CCCCCCCC(COP(=O)([O-])OCC[N+](C)(C)C)OCC` (racemic) [(Z)-(±)-2-ethoxy-1-[(2-trimethylaminoethoxy)phosphinyloxy]-10-nonadecene, hydroxy inner salt], for which, in the series on CCRF-CEM cell line, the IC50 is 1.6 µg/mL. Besides, the “Percent Inhibition of Tumor” value in series [1] (50 mg/kg) was found to be 47%. The “Toxic Deaths” value in series [2] (50 mg/kg) is 1/10.
As for `CCCCC/C=C\C/C=C\CCCCCCCC(COP(=O)([O-])OCC[N+](C)(C)C)OC` (racemic) [(Z,Z)-(±)-2-Methoxy-1-[(2-trimethylaminoethoxy)phosphinyloxy]-10,13-nonadecadiene, hydroxy inner salt], in the series on CCRF-CEM cell line, the IC50 was found to be 4.2 µg/mL.
